The record followed here is ChEMBL document CHEMBL5143625, “Isolation, synthesis and bioactivity evaluation of isoquinoline alkaloids from Corydalis hendersonii Hemsl. against gastric cancer in vitro and in vivo” (Bioorg Med Chem, 2022).

Data set [1] has as its system HGC-27. The experiment in a line: Inhibition of cell invasion in human HGC-27 cells assessed as reduction in invasion at 1 to 8 uM for 24 hrs by transwell invasion assay. To be noted: dose 1-8 µM, DDE = dose-dependent effect. In kind it is functional, cell-based.
For data set [2], the system named is MGC-803. The experiment in a line: Induction of mitochondrial membrane potential loss in human MGC-803 cells assessed as TMRE positive cells at 1.25 to 10 uM by TRME staining based flow cytometric analysis (reference value: 6.8%). In kind it is functional, cell-based. To be noted: dose 1.25-10 µM, DDE = dose-dependent effect.
The test system of data set [3] is HGC-27. The experiment in a line: Antiproliferative activity against human HGC-27 cells assessed as EdU positive cells at 1 to 8 uM for 24 hrs by y EdU assay (reference value: 56.2%). To be noted: dose 1-8 µM. In kind it is functional.
For data set [4], the system named is MGC-803. The experiment in a line: Induction of apoptosis in human MGC-803 cells assessed as increase in cleaved caspase-3 expression at 1.25 to 10 uM by western blot analysis. In kind it is functional, cell-based. To be noted: dose 1.25-10 µM, DDE = dose-dependent effect.
Data set [5] has as its system HGC-27. The experiment in a line: Induction of apoptosis in human HGC-27 cells assessed as increase in apoptotic cells at 2 to 16 uM after 48 hr by AnnexinV-FITC/PI staining based flow cytometric analysis (reference value: 5.03%). In kind it is functional, cell-based. The settings on record: dose 2-16 µM, DDE = dose-dependent effect.
Data set [6] has as its system MGC-803. The experiment in a line: Inhibition of cell invasion in human MGC-803 cells assessed as reduction in invasion at 0.5 to 4 uM for 24 hrs by transwell invasion assay. The format is functional, cell-based. The settings on record: dose 0.5-4 µM, DDE = dose-dependent effect.
Data set [7] can be described thus: AUC(0 to t) in Sprague-Dawley rat at 50 mg/kg, ip measured upto 24 hrs by LC-MS analysis. Set-up: time < 24 hrs, dose 50 mg/kg, route ip. To be noted: in vivo. In kind it is ADME, organism-based.
Data set [8] has as its system MGC-803. The experiment in a line: Antitumor activity against human MGC-803 cells xenografted in immunodeficient nude mouse assessed as tumor weight at 50 mg/kg, ip administered for 3 weeks (reference value: 157.8 mg). In kind it is functional.
The nature of data set [9]: Half life in Sprague-Dawley rat at 50 mg/kg, ip measured upto 24 hrs by LC-MS analysis. The settings on record: in vivo. In kind it is ADME, organism-based.
Data set [10] relates to MGC-803. The experiment in a line: Antitumor activity against human MGC-803 cells xenografted in immunodeficient nude mouse assessed as reduction in tumor growth at 50 mg/kg, ip administered for 3 weeks relative to control. In kind it is functional. The settings on record: MGC-803, 504 h, read-out: TGI.
Data set [11] concerns HGC-27. The experiment in a line: Induction of apoptosis in human HGC-27 cells assessed as increase in cleaved caspase-9 expression at 2 to 16 uM by western blot analysis. The format is functional, cell-based. The settings on record: dose 2-16 µM, DDE = dose-dependent effect.
Data set [12] deals with MGC-803. The experiment in a line: Induction of apoptosis in human MGC-803 cells assessed as reduction in BCl2 expression at 1.25 to 10 uM by western blot analysis. In kind it is functional, cell-based. The settings on record: dose 1.25-10 µM, DDE = dose-dependent effect.
Data set [13] deals with MGC-803. The experiment in a line: Inhibition of cell migration in human MGC-803 cells assessed as reduction in migration at 0.5 to 4 uM for 24 hrs by transwell migration assay. In kind it is functional, cell-based. To be noted: dose 0.5-4 µM, DDE = dose-dependent effect.
A further data set is filed under the species Homo sapiens. The experiment in a line: Inhibition of DNA topoisomerase 1 (unknown origin) assessed as relaxation of supercoiled plasmid pBR322 DNA at 12.5 to 100 uM incubated for 30 mins by agarose gel electrophoresis. To be noted: dose 12.5-100 µM.
In data set [14] the test system is MGC-803. The experiment in a line: Antitumor activity against human MGC-803 cells xenografted in immunodeficient nude mouse assessed as increase in survival at 50 mg/kg, ip administered for 3 weeks. The format is functional, organism-based.
In data set [15] the test system is HGC-27. The experiment in a line: Induction of cell cycle arrest in human HGC-27 cells assessed as cells accumulation at G2/M phase at 2 to 16 uM after 48 hrs by propidium iodide staining based flow cytometric analysis (reference value: 5.3%). The format is functional. The settings on record: dose 2-16 µM.
Data set [16] is described as follows: MRT(0 to t) in Sprague-Dawley rat at 50 mg/kg, ip measured upto 24 hrs by LC-MS analysis. The settings on record: in vivo. The format is ADME, organism-based.
Data set [17] is described as follows: Cmax in Sprague-Dawley rat at 50 mg/kg, ip measured upto 24 hrs by LC-MS analysis. The format is ADME, organism-based. Set-up: time < 24 hrs, dose 50 mg/kg, route ip. To be noted: in vivo.
Data set [18] concerns HGC-27. The experiment in a line: Inhibition of cell migration in human HGC-27 cells assessed as reduction in migration at 1 to 8 uM for 24 hrs by wound healing assay. The format is functional, cell-based. To be noted: dose 1-8 µM, DDE = dose-dependent effect.

Activity calls are given as the source filed them. The calls are words filed in the database; no cut-off is given here.

For the compound `Oc1c(Cc2nccc3cc4c(cc23)OCO4)ccc2c1OCO2`, the inhibition entry in the data set on HGC-27 [1], in the data set with MGC-803 [6], in the data set with MGC-803 [13] and with HGC-27 [18] was “Dde” throughout. In addition, the Activity result in the data set with MGC-803 [2] was “Dde”; in the data set with HGC-27 [3], 20.8%; with MGC-803 [4], “Dde”; in the data set on HGC-27 [5] it was “Dde”; in the data set on MGC-803 [8], 176.2 mg; with HGC-27 [11], “Dde”. The figures for the Activity result in the data set on MGC-803 [12] and with HGC-27 [15] were “Dde” and 51.2%, respectively. In addition, the AUC(0-t) at 24 h in data set [7] came out at 29500 ng·h/mL. Further, the half-life in data set [9] was 2.3 h. In the data set on MGC-803 [10], the inhibition in vivo at 50 mg/kg came to 63.8%. For the same compound, the inhibition result in the data set filed under Homo sapiens was “Active”. Besides, the result in the data set with MGC-803 [14] was Active. For the same compound, in data set [16], the MRT last at 24 h was 3.3 h. The same compound yielded a Cmax in data set [17] of 8900 ng/mL.
